Bridge positions count the residues as written; N and C are the ends. Square brackets hold non-standard residues; d marks the D form. Peptide text beside a SMILES is read from it. * marks the point of attachment. FITC = O=C1OC2(c3ccc(O)cc3Oc3cc(O)ccc32)c2ccc(NC(=S)*)cc21; βAla = NCCC(=O)O
What was measured:
[1] = system: MDM2; test: Fluorescence polarization (FP) competition assay, binding to MDM2; conditions: FP competition assay described previously (ref 32 method); oxidized products; Fig. S3
Source text: The most abundantly enriched sequences from both selections were then synthesized, and their oxidative folding in redox buffers were examined using HPLC. Oxidation of the MDM2-binding peptide (drp2) yields two products (drp2-a and drp2-b) in a ratio of ∼1 : 3 (Fig. 2c). […] The structures of the two products were then characterized using NMR (Fig. 2c; PDB 7W8O and 7W8R). Both products can maintain a stable, but different 3D structure with a conserved α-helix responsible for target recognition, corresponding to the parallel and antiparallel dimeric pairing of the two CPPC motifs in the peptide (drp2-a and drp2-b, respectively). […]
min incubation at room temperature, the fluorescence anisotropies were measured using a plate reader (Eex= 485 nm, Eem=535 nm). All of the measurements were recorded in triplicate. In the fluorescence polarization assay s measuring the binding of reduced FITC-drp8 to CD28 and the binding of oxidized FITC-drp8 to CTLA-4, the fluorescence anisotrop ies were recorded in the same way as described above.
Dissociation constants ( KD) were determined by nonlinear regression analysis of anisotrop ies versus the concentrations of the protein using the following equation: […]
(b) Competition fluorescence polarization assay. The binding of drp8 to CD28 was measured by adding dilutions of drp8 to premixed oxidized FITC-drp8 and CD28 in PBS (pH 7.4). […]

[2] = biological target: T1, Keap1 (Homo sapiens, UniProt Q14145); test: Surface plasmon resonance (SPR) assay, affinity of peptides to Keap1; assay type: binding; conditions: Biacore T200, 25 °C, biotinylated Keap1 on CAP chip, peptide 25-1600 nM, flow 30 μL/min, multi-cycle affinity method, oxidized, HPLC-purified peptide, read-out: equilibrium dissociation constant (KD) toward Keap1
T1 construct: another target (the Kelch domain of Keap1)
T1 sequence (Q14145 321-609 limits assumed, species assumed): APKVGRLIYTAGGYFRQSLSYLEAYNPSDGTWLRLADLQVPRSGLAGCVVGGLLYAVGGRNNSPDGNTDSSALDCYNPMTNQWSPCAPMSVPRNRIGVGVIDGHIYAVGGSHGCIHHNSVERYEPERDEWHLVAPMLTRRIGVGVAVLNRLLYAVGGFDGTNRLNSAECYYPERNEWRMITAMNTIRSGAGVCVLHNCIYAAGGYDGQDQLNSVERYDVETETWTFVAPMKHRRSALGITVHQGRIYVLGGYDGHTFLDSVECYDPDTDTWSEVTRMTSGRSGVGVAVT
Method: Surface plasmon resonance (SPR) assay
The affinity of peptides to Keap1 was measured using Biacore T200 (GE healthcare) at 25℃. At first, Keap1 was linked to a Biacore CAP chip via the interaction of biotin and avidin (Biotinylation of Keap1 occurs through the preceding reaction, Biacore CAP chip was performed through a Biotin CAPture Kit (GE healthcare)). Then, different concentrations of peptides were used in experiment (25, 50, 100, 200, 400, 800, 1600 nM) at a flow rate of 30 μL/min. The binding affinity and kinetics constants were quanti-fied by a multi-cycle affinity method.
NMR samples were dissolved in 80% perdeuterated acetonitrile and 20% H2O for drp1, 75% perdeu-terated acetonitrile and […] for drp2-a, 60% perdeuterated acetonitrile and 40% H2O for drp8, 50% perdeuterated acetonitrile and 50% H2O for drp3 and drp6, 40% perdeuterated acetonitrile and 60% H2O for drp2-b and drp4 (The solution conditions depend on the dispersion of cross -peaks). All of NMR samples were prepared in a final concentration of about 1 mM. […] Two dimensional (2D) 1H, 15N/13C HSQC spectra were recorded to obtain chemical shifts of heavy atoms in backbone and side-chains. […]
The backbone dihedral angle restraints were obtained using programs TALOS -N based on chemical shifts of backbone resonances6. […] The structures were visualized in PyMol, and the quality of structures was analyzed using PROCHECK 9. […]

[3] = biological target: T2, CD28 (Homo sapiens, UniProt P10747); test: Fluorescence polarization binding assay (saturation binding of FITC-drp8 to CD28); conditions: FP assay, same way as for oxidized FITC-drp8
T2 construct: purchased Sino Biological 11524-HCCH
T2 sequence (P10747 19-220): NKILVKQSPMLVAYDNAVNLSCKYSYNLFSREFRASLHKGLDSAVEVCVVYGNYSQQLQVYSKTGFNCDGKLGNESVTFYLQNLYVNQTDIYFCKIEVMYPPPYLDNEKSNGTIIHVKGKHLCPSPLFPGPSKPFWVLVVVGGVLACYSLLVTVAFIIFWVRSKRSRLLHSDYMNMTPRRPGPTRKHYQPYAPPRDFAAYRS
Source text: (§1) from 2% agarose gel (containing 0.005% v/v of 4S Red Plus Nucleic Acid Stain) used a commercial agarose gel purification kit (E.Z.N.A® Gel Extraction Kit, OMEGA BIO-TEK, USA). Then, Novogene Co., Ltd. was commissioned for sequence identification. The data were processed and analyzed using […]
(§2) All peptides were synthesized on a CEM Liberty Blue automated microwave peptide synthesizer by standard Fmoc solid-phase chemistry on a Rink Amide MBHA resin (0.025 mmol scale). Coupling reac-tions were performed with a Fmoc-AA-OH (5 eq., 0.2 M solution in DMF), DIC (5 eq., 0.25 M solution in DMF) and Oxyma Pure (5 eq., 1.0 M solution in DMF). […]
(§3) In a typical experiment, reduced peptide (50 μM) was dissolved in 100 mM phosphate buffer (500 μL, pH 7.4) containing 6 M Gu·HCl, 0.5 mM GSSG and 10% DMSO (v/v). […] After analyzed by MALDI-TOF MS, the oxidized peptide was purified and lyophilized to yield […]
(§4) Circular dichroism (CD) wavelength and temperature scans were recorded for thermal denaturation experiments. […] Wavelength scans from 190 nm to 260 nm were recorded at 25℃, 45℃, 75℃ and 95℃, and temperature were carried out at a heating rate of 5℃/min in 1 mm path length cuvettes.
(§5) Fluorescence polarization (FP) assay
(§6) (a) Fluorescence polarization binding assay. […]
min incubation at room temperature, the fluorescence anisotropies were measured using a plate reader (Eex= 485 nm, Eem=535 nm). […]

[4] = Circular dichroism (CD) thermal denaturation; assay type: physicochemical; conditions: CD 190-260 nm, 61 μM in pure water, scans at 25, 45, 75 and 95 °C; only a small decline of CD signals up to 95 °C; Fig. S7
Source text: as §1
as §2, with “DMF). Fmoc groups were removed using a 20% (v/v) solution of piperidine in DMF.” for “DMF).”
as §3, §4, §5, §6

For “H-GCPPCESCHSGESTFWCYWEALCPPC-NH2 (also: bicyclic or more (positions not given here)) [drp2-a, oxidized product of drp2]”, the “affinity to MDM2 (in words)” value [1] was “subnanomolar affinity”.
Compound `CC[C@H](C)[C@@H]1NC(=O)[C@H](CCC(=O)O)NC(=O)[C@@H]2CSSC[C@H](NC(=O)[C@H](CO)NC(=O)[C@H](CO)NC(=O)[C@H](C(C)C)NC(=O)[C@H](CCC(=O)O)NC(=O)[C@H](CCSC)NC(=O)[C@@H]3CSSC[C@H](NC(=O)[C@H](CCCNC(=N)N)NC(=O)[C@H](CO)NC(=O)CNC1=O)C(=O)N1CCC[C@H]1C(=O)N1CCC[C@H]1C(=O)N[C@H](C(N)=O)CSSC[C@H](NC(=O)[C@@H](N)Cc1c[nH]c4ccccc14)C(=O)N1CCC[C@H]1C(=O)N1CCC[C@H]1C(=O)N3)C(=O)N[C@@H](CC(=O)O)C(=O)N[C@@H](CCC(=O)O)C(=O)N[C@@H](CCC(=O)O)C(=O)N[C@@H]([C@@H](C)O)C(=O)NCC(=O)N[C@@H](CCC(=O)O)C(=O)N2` [drp6] (H-WCPPCMEVSSCDEETGECEIGSRCPPC-NH2; disulfide 2-27, 5-24, 11-18) has a Kd [2] of 0.047 µM.
In the case of “{FITC}-[βAla]GCPPCPREHELVAVPCEGLNNCWFVEACPPC-NH2 (cysteine pairing not given here) [reduced drp8, reduced form of fluorescein-labeled drp8]”, the “binding of reduced labeled peptide to CD28 (in words)” value [3] is reported as “negligible”.
For “H-SCPPCHGRPTCTKPGDNATPEKLAKYQACWELLTCPPC-OH (also: bicyclic or more (positions not given here)) [drp4, drp1 grafted with loop-α-helix fold of PPα-Tyr; recombinantly produced in E. coli as SUMO fusion]”, the “thermal stability of the 3D structure (CD signal)” value [4] was “extremely stable to thermal treatment”.
